Data on 28 compounds can be found in ChEMBL document CHEMBL3393002, “Diaminopyrimidines, diaminopyridines and diaminopyridazines as histamine H4 receptor modulators” (Bioorg Med Chem Lett, 2015).

Broadly, the EC50 is the concentration that produces a half-maximal response. One may read the Ki as a dissociation constant, usually derived from enzyme kinetics or from competition with a known ligand.

The target of experiment [1] is T1, Histamine H4 receptor (Homo sapiens, UniProt Q9H3N8). The experiment can be described thus: Agonist activity at human recombinant histamine H4 receptor expressed in SK-N-MC cells assessed as effect on forskolin-stimulated cAMP-mediated reporter gene activity. The experiment is classed as functional, cell-based. Background: Reporter assays use an easily measured gene product as a stand-in for the process of interest.
T1 sequence (Q9H3N8 whole entry): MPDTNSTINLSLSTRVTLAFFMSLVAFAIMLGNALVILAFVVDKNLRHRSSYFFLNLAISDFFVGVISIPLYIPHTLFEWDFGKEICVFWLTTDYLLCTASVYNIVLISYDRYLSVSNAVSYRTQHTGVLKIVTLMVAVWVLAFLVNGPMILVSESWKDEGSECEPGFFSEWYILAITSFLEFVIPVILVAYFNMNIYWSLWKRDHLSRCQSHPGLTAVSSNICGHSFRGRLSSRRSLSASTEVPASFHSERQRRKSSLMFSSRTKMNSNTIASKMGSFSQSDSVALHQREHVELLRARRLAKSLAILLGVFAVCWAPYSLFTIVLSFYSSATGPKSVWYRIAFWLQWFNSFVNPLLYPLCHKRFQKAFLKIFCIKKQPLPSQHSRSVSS

Experiment [2] concerns the target T1, Histamine H4 receptor. Nature of the experiment: Displacement of [3H]histamine from human recombinant histamine H4 receptor. A general note: In a radioligand displacement assay an active substance lowers the binding of a labelled ligand.
The target of experiment [3] is T1, Histamine H4 receptor. The experiment can be described thus: Antagonist activity at human recombinant histamine H4 receptor expressed in SK-N-MC cells assessed as inhibition of forskolin-stimulated cAMP-mediated reporter gene activity. The experiment is classed as functional, cell-based. Particulars: read-out: pA2 (converted).

For the compound `CN[C@@H]1CCN(c2ccnc(NC(C)C)n2)C1`, in experiment [1], the EC50 is 25 nM. For the same compound, the Ki in experiment [2] is 8 nM.

Regarding `CN[C@@H]1CCN(c2ccnc(NC(C)C)c2)C1`, the 50% effective concentration (EC50) in experiment [1] is 3160 nM.

`CN1CCN(c2ccnc(-c3ccsc3)c2)CC1`: the Ki in experiment [2] came to 21 nM.

As for `CN[C@@H]1CCN(c2ccnc(-c3ccsc3)c2)C1`, in experiment [2], the Ki is 216 nM.

In the case of `CN1CCN(c2ccnc(N3CCCCC3)c2)CC1`, the Ki in experiment [2] amounted to 142 nM.

`CN[C@@H]1CCN(c2ccnc(N3CCCCC3)c2)C1`: the Ki in experiment [2] was determined as 97 nM.

In the case of `CCCCNc1cc(N2CCN(C)CC2)ccn1`, the inhibitory constant (Ki) in experiment [2] is 176 nM.

Consider `CCCCNc1cc(N2CC[C@@H](NC)C2)ccn1`, for which the 50% effective concentration (EC50) in experiment [1] was 48 nM. Further, in experiment [2], the inhibition constant (Ki) worked out at 7 nM.

As for `CCCCNc1cc(N2CC[C@H](NC)C2)ccn1`, the Ki in experiment [2] was determined as 109 nM.

`CN1CCN(c2ccnc(NC3CCCC3)c2)CC1`: in experiment [2], the inhibitory constant (Ki) is 16 nM.

Take `CN[C@@H]1CCN(c2ccnc(NC3CC4CCC3C4)c2)C1` (stereo partly specified): the concentration for a half-maximal effect (EC50) in experiment [1] is above 10000 nM. Further, in experiment [3], the Kb was 6.31 nM.

As for `CN[C@H]1CCN(c2ccnc(NC3CC4CCC3C4)c2)C1` (stereo partly specified), the EC50 in experiment [1] was above 10000 nM. Besides, the Ki in experiment [2] was determined as 6 nM.

In the case of `CC(C)Nc1nccc(N2CCN(C)CC2)n1`, the EC50 in experiment [1] worked out at 112 nM. Also, the Ki in experiment [2] turned out to be 117 nM.

As to `CN[C@H]1CCN(c2ccnc(NC(C)C)n2)C1`, the inhibition constant (Ki) in experiment [2] turned out to be 118 nM.

With `CC(C)CNc1nccc(N2CCN(C)CC2)n1`, in experiment [1], the EC50 was found to be 84 nM.

`CCCCNc1nccc(N2CCN(C)CC2)n1`: in experiment [1], the EC50 turned out to be 91 nM. The Ki in experiment [2] stood at 55 nM.

As to `CCCCNc1nccc(N2CC[C@@H](NC)C2)n1`, the EC50 in experiment [1] was found to be 4 nM. Further, in experiment [2], the inhibition constant (Ki) came to 3 nM.

`CN1CCN(c2ccnc(NC3CCCC3)n2)CC1`: in experiment [1], the concentration giving a half-maximal response (EC50) was determined as 75 nM. The inhibition constant Ki in experiment [2] amounted to 63 nM.

As to `CN1CCN(c2ccnc(NC3CC4CCC3C4)n2)CC1` (stereo unspecified), the EC50 in experiment [1] worked out at 20 nM.

With `CN[C@@H]1CCN(c2ccnc(NC3CC4CCC3C4)n2)C1` (stereo partly specified), the EC50 in experiment [1] was found to be 3160 nM. Besides, the inhibitory constant (Ki) in experiment [2] was 0.8 nM. Moreover, the Kb in experiment [3] is 79.4 nM.

Turning to `CN[C@H]1CCN(c2ccnc(NC3CC4CCC3C4)n2)C1` (stereo partly specified), the concentration giving a half-maximal response (EC50) in experiment [1] is above 10000 nM. Also, in experiment [2], the Ki came out at 8 nM.

For `CC(C)CNc1cc(N2CCN(C)CC2)cnn1`, the inhibitory constant (Ki) in experiment [2] was 10000 nM.

For `CN[C@@H]1CCN(c2cnnc(NCC(C)C)c2)C1`, the EC50 in experiment [1] came out at 3160 nM. In addition, in experiment [2], the inhibition constant Ki stood at 55 nM.

Take `CN[C@H]1CCN(c2cnnc(NCC(C)C)c2)C1`: the inhibition constant (Ki) in experiment [2] stood at 389 nM.

Turning to `CN[C@@H]1CCN(c2cnnc(NC3CCCC3)c2)C1`, in experiment [2], the inhibition constant (Ki) came to 6 nM. In experiment [3], the Kb is 10 nM.

With `CN[C@H]1CCN(c2cnnc(NC3CCCC3)c2)C1`, the Ki in experiment [2] was found to be 240 nM.

As for `CN1CCN(c2cnnc(NC3CC4CCC3C4)c2)CC1` (stereo unspecified), in experiment [2], the inhibition constant (Ki) is 365 nM.

For `CC(C)c1cc(N2CC[C@@H](N)C2)nc(N)n1` [JNJ-39758979], the Ki in experiment [2] stood at 12 nM.
